Data from US10131652B2, “Pyrimidinyloxy benzene derivatives as herbicides” (E. I. DU PONT DE NEMOURS AND COMPANY, priority 2014, dated 2018).

What was measured:
Assay in all cases: Test F pre-/postemergence plant response
Type in all cases: in vivo
Conditions in all cases: scale 0 to 100
[1] = system: green foxtail (Setaria viridis)
In short: (§1)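 Seeds were sown in silt loam soil and sprayed preemergence; separately, plants at the 1- to 4-leaf stage (2 to 18 cm) received postemergence sprays. Test chemicals were in a non-phytotoxic solvent mixture with surfactant. After 14 to 21 days in a greenhouse, injury was visually rated 0 (no effect) to 100 (complete control) against untreated controls.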

[2] = system: fall panicum (Panicum dichotomiflorum)
In short: as §1

[3] = system: lambsquarters (Chenopodium album)
In short: as §1

corn (Zea mays) = system: corn (Zea mays)
In short: as §1

[4] = system: Brazilian crabgrass (Digitaria horizontalis)
In short: as §1

[5] = system: ragweed (common ragweed, Ambrosia elatior)
In short: as §1

[6] = system: morningglory (Ipomoea coccinea)
In short: as §1

`Cc1cc(-c2ccccc2Oc2ncc(Cl)cn2)on1` [Compound 58] was tested, and the “Plant response rating, Foxtail, Green” value ([1]; 8 g ai/ha Preemergence) was 0, the “Plant response rating, Foxtail, Green” value ([1]; 16 g ai/ha Preemergence) was 0 and the “Plant response rating, Foxtail, Green” value ([1]; 31 g ai/ha Preemergence) was 0. For the same compound, the “Plant response rating, Foxtail, Green” value ([1]; 125 g ai/ha Preemergence) was 25, the “Plant response rating, Foxtail, Green” value ([1]; Preemergence) was 0 and the “Plant response rating, Panicum, Fall” value ([2]; 8 g ai/ha Postemergence) was 15. For the same compound, the “Plant response rating, Panicum, Fall” value ([2]; 8 g ai/ha Preemergence) was 0, the “Plant response rating, Panicum, Fall” value ([2]; 16 g ai/ha Postemergence) was 0 and the “Plant response rating, Panicum, Fall” value ([2]; 16 g ai/ha Preemergence) was 35. The “Plant response rating, Panicum, Fall” value ([2]; 31 g ai/ha Postemergence) was 0, the “Plant response rating, Panicum, Fall” value ([2]; 31 g ai/ha Preemergence) was 65 and the “Plant response rating, Panicum, Fall” value ([2]; 62 g ai/ha Postemergence) was 10. For the same compound, the “Plant response rating, Panicum, Fall” value ([2]; 125 g ai/ha Postemergence) was 15, the “Plant response rating, Panicum, Fall” value ([2]; 125 g ai/ha Preemergence) was 100 and the “Plant response rating, Panicum, Fall” value ([2]; Preemergence) was 90. The “Plant response rating, Lambsquarters” value ([3]; 16 g ai/ha Preemergence) was 0, the “Plant response rating, Lambsquarters” value ([3]; 31 g ai/ha Preemergence) was 65 and the “Plant response rating, Lambsquarters” value ([3]; 125 g ai/ha Preemergence) was 100. For the same compound, the “Plant response rating, Lambsquarters” value ([3]; Preemergence) was 90, the “Plant response rating, Corn” value (corn (Zea mays); 8 g ai/ha Postemergence) was 0 and the “Plant response rating, Corn” value (corn (Zea mays); 8 g ai/ha Preemergence) was 0. For the same compound, the “Plant response rating, Corn” value (corn (Zea mays); 16 g ai/ha Postemergence) was 0, the “Plant response rating, Corn” value (corn (Zea mays); 16 g ai/ha Preemergence) was 0 and the “Plant response rating, Corn” value (corn (Zea mays); 31 g ai/ha Postemergence) was 0. The “Plant response rating, Corn” value (corn (Zea mays); 31 g ai/ha Preemergence) was 0, the “Plant response rating, Corn” value (corn (Zea mays); 62 g ai/ha Postemergence) was 5 and the “Plant response rating, Corn” value (corn (Zea mays); 62 g ai/ha Preemergence) was 0. The “Plant response rating, Corn” value (corn (Zea mays); 125 g ai/ha Postemergence) was 5, the “Plant response rating, Corn” value (corn (Zea mays); 125 g ai/ha Preemergence) was 0 and the “Plant response rating, Crabgrass, Brazil” value ([4]; 8 g ai/ha Postemergence) was 5. The “Plant response rating, Crabgrass, Brazil” value ([4]; 8 g ai/ha Preemergence) was 0, the “Plant response rating, Crabgrass, Brazil” value ([4]; 16 g ai/ha Postemergence) was 5 and the “Plant response rating, Crabgrass, Brazil” value ([4]; 16 g ai/ha Preemergence) was 0. The “Plant response rating, Crabgrass, Brazil” value ([4]; 31 g ai/ha Postemergence) was 5, the “Plant response rating, Crabgrass, Brazil” value ([4]; 31 g ai/ha Preemergence) was 0 and the “Plant response rating, Crabgrass, Brazil” value ([4]; 62 g ai/ha Postemergence) was 10. For the same compound, the “Plant response rating, Crabgrass, Brazil” value ([4]; 62 g ai/ha Preemergence) was 35, the “Plant response rating, Crabgrass, Brazil” value ([4]; 125 g ai/ha Postemergence) was 10 and the “Plant response rating, Crabgrass, Brazil” value ([4]; 125 g ai/ha Preemergence) was 75. The “Plant response rating, Ragweed” value ([5]; 8 g ai/ha Preemergence) was 0, the “Plant response rating, Ragweed” value ([5]; 16 g ai/ha Preemergence) was 0 and the “Plant response rating, Ragweed” value ([5]; 31 g ai/ha Preemergence) was 0. The “Plant response rating, Ragweed” value ([5]; 125 g ai/ha Preemergence) was 75, the “Plant response rating, Ragweed” value ([5]; Preemergence) was 25 and the “Plant response rating, Morningglory” value ([6]; 8 g ai/ha Preemergence) was 0. The “Plant response rating, Morningglory” value ([6]; 16 g ai/ha Preemergence) was 0, the “Plant response rating, Morningglory” value ([6]; 31 g ai/ha Preemergence) was 10 and the “Plant response rating, Morningglory” value ([6]; 125 g ai/ha Preemergence) was 10. For the same compound, the “Plant response rating, Morningglory” value ([6]; Preemergence) was 10.
With `Fc1ccc(Oc2ncc(Cl)cn2)c(-c2cc(C(F)F)on2)c1Cl` [Compound 96] the “Plant response rating, Foxtail, Green” value ([1]; 16 g ai/ha Preemergence) was 25, the “Plant response rating, Foxtail, Green” value ([1]; 31 g ai/ha Preemergence) was 30 and the “Plant response rating, Foxtail, Green” value ([1]; 125 g ai/ha Preemergence) was 25. For the same compound, the “Plant response rating, Foxtail, Green” value ([1]; Preemergence) was 35, the “Plant response rating, Panicum, Fall” value ([2]; 16 g ai/ha Postemergence) was 0 and the “Plant response rating, Panicum, Fall” value ([2]; 31 g ai/ha Postemergence) was 15. The “Plant response rating, Panicum, Fall” value ([2]; 31 g ai/ha Preemergence) was 40, the “Plant response rating, Panicum, Fall” value ([2]; 62 g ai/ha Postemergence) was 10 and the “Plant response rating, Panicum, Fall” value ([2]; 125 g ai/ha Postemergence) was 25. For the same compound, the “Plant response rating, Panicum, Fall” value ([2]; 125 g ai/ha Preemergence) was 70, the “Plant response rating, Panicum, Fall” value ([2]; Preemergence) was 50 and the “Plant response rating, Lambsquarters” value ([3]; 16 g ai/ha Preemergence) was 5. The “Plant response rating, Lambsquarters” value ([3]; 31 g ai/ha Preemergence) was 100, the “Plant response rating, Lambsquarters” value ([3]; 125 g ai/ha Preemergence) was 100 and the “Plant response rating, Lambsquarters” value ([3]; Preemergence) was 100. The “Plant response rating, Corn” value (corn (Zea mays); 16 g ai/ha Postemergence) was 0, the “Plant response rating, Corn” value (corn (Zea mays); 16 g ai/ha Preemergence) was 0 and the “Plant response rating, Corn” value (corn (Zea mays); 31 g ai/ha Postemergence) was 5. For the same compound, the “Plant response rating, Corn” value (corn (Zea mays); 31 g ai/ha Preemergence) was 0, the “Plant response rating, Corn” value (corn (Zea mays); 62 g ai/ha Postemergence) was 10 and the “Plant response rating, Corn” value (corn (Zea mays); 62 g ai/ha Preemergence) was 0. The “Plant response rating, Corn” value (corn (Zea mays); 125 g ai/ha Postemergence) was 10, the “Plant response rating, Corn” value (corn (Zea mays); 125 g ai/ha Preemergence) was 0 and the “Plant response rating, Crabgrass, Brazil” value ([4]; 16 g ai/ha Postemergence) was 0. For the same compound, the “Plant response rating, Crabgrass, Brazil” value ([4]; 16 g ai/ha Preemergence) was 0, the “Plant response rating, Crabgrass, Brazil” value ([4]; 31 g ai/ha Postemergence) was 5 and the “Plant response rating, Crabgrass, Brazil” value ([4]; 31 g ai/ha Preemergence) was 0. The “Plant response rating, Crabgrass, Brazil” value ([4]; 62 g ai/ha Postemergence) was 20, the “Plant response rating, Crabgrass, Brazil” value ([4]; 62 g ai/ha Preemergence) was 0 and the “Plant response rating, Crabgrass, Brazil” value ([4]; 125 g ai/ha Postemergence) was 25. The “Plant response rating, Crabgrass, Brazil” value ([4]; 125 g ai/ha Preemergence) was 5, the “Plant response rating, Ragweed” value ([5]; 16 g ai/ha Postemergence) was 15 and the “Plant response rating, Ragweed” value ([5]; 16 g ai/ha Preemergence) was 0. The “Plant response rating, Ragweed” value ([5]; 31 g ai/ha Postemergence) was 20, the “Plant response rating, Ragweed” value ([5]; 31 g ai/ha Preemergence) was 20 and the “Plant response rating, Ragweed” value ([5]; 62 g ai/ha Postemergence) was 20. The “Plant response rating, Ragweed” value ([5]; 125 g ai/ha Postemergence) was 40, the “Plant response rating, Ragweed” value ([5]; 125 g ai/ha Preemergence) was 35 and the “Plant response rating, Ragweed” value ([5]; Preemergence) was 50. The “Plant response rating, Morningglory” value ([6]; 16 g ai/ha Preemergence) was 35, the “Plant response rating, Morningglory” value ([6]; 31 g ai/ha Preemergence) was 35 and the “Plant response rating, Morningglory” value ([6]; 125 g ai/ha Preemergence) was 25. The “Plant response rating, Morningglory” value ([6]; Preemergence) was 35.
